{
  "source": "patent US11999782B2",
  "about": "“Therapeutic agents for the treatment of diseases associated with undesired cell proliferation” (Fundació Privada Institutció Catalana de Recerca I Estudis …, priority 2009, dated 2024)",
  "key": {"[1]": {"tested_on": "LIF expression in GBM neurospheres", "assay": "LIF mRNA by qRT-PCR in GBM neurospheres", "type": "cell-based, human", "conditions": "3 hours; for LIF transcript in neurospheres derived from patients: 100 pM, medium without serum", "description": "FIG. 3. TGFβ induces the expression of LIF in PCTC and GBM neurospheres. (A) PCTC cells of the 11 samples of the indicated GEM (GBM1-11) were treated with 100 pM TGFβ1 for 3 hours in medium without serum or left untreated, and the expression levels of LIF were determined by means of qRT-PCR. The g-actin was determined as an internal normalization control. (B) GBM neurosphere cells were treated as in A and the expression levels of LIF were determined by means of qRT-PCR as in A. (C) GBM neurospheres were incubated with 100 pM TGFβ1 and/or 2 μM TβRI inhibitor for 3 hours in medium without serum and the mRNA levels of LIF were determined by means of qRT-PCR as in A. (D) GBM1 neurospheres were incubated with 100 pM TGFβ1, TGFβ2 and TGFβ3 for 3 hours in medium without serum and the mRNA levels of LIF were determined by means of qRT-PCR as in A. (E) The levels of LIF protein secreted were determined by means of ELISA in GBM1 neurospheres after 48 hours of treatment with 100 pM TGFβ1.\nThe U373MG and A172 cells were a generous gift from J. Rich and D. Bigner and were cultured in DMEM with 10% fetal bovine serum (FBS). The primary culture of tumor cells (PCTC) and the GBM neurospheres were generated as described (Bruna et al., (2007) Cancer Cell 11, 147-160; Gunther et al., (2008) Oncogene. May 1; 27(20):2897-909). Briefly, the samples of tumors were processed in the 30 minutes after the surgical resection. The ground pieces of the samples of human gliomas were digested with 200 U/ml collagenase I (Sigma) and 500 U/ml of DNase I (Sigma) in PBS for 2 hours at 37° C. and with constant vigorous stirring. The suspension of individual cells was filtered through a 70 μm cell filter (BD Falcon) and washed with PBS. Finally, the cells were resuspended and subsequently cultured in DMEM with 10% FBS, for the culture of PCTCs, or in neurosphere medium in the case of the GBM neurospheres. The neurospheres of normal human neuroprogenitors were generated from human embryonic cerebral cortex tissue (12-16 weeks after the conception) collected after voluntary abortions. The samples were processed and cultured as described (Poltavtseva et al. (2002) Brain Res Dev Brain Res 134, 149-154). The neurosphere medium consists of neurobasal medium (Gibco) supplemented with B27 (Gibco), L-glutamine (Gibco), penicillin/streptomycin, and growth factors (20 ng/mL EGF and 20 ng/mL FGF-2 (Peprotech)).\n(§1) qRT-PCR was performed using Taqman probes from Applied Biosystems, according to the manufacturer's recommendations. The reactions were carried out in a ABI 7000 sequence detector (Perkin Elmer) and the results were expressed as the fold change calculated by means of the DDCt method relative to the control sample or the first quantified sample. The ribosomal unit of 18S or β-actin were used as internal normalization controls.\nIt was decided to investigate the molecular mechanisms responsible for the effect of TGFβ on GICs. Gene responses to TGFβ in GBM cells which could be involved in the regulation of the self-renewal of GICs were investigated. In a previous work (Bruna et al., 2007), transcriptome analyses were conducted in the U373MG glioma cell line treated with TGFβ and/or a TβRI inhibitor. LIF was among the 63 gene responses to TGFβ in U373MG which were dependent on the activity of TβRI. […] A panel of PCTCs derived from 11 different human GBMs was treated with TGFβ for 3 hours and the levels of LIF mRNA were determined."}, "[2]": {"tested_on": "GBM neurospheres", "assay": "Differentiation of GBM neurospheres (neuroprogenitor markers, adhesion)", "type": "cell-based, human", "conditions": "7 days without EGF or FGF; for adhesion to the culture plate / morphology versus control cells: GBM neurospheres, poly-L-lysine", "description": "FIG. 7. TGFβ and LIF prevent the differentiation of GBM neurospheres. (A) Immunocytochemistry of the indicated proteins was performed in neurospheres derived from GBM1 treated with 100 pM TGFβ1 or 20 ng/ml LIF for 7 days in the absence of growth factors and the last 3 days on slides coated with poly-L-lysine. (B) The mRNA levels of Musashi-1 (Msi-1), Sox2 and Nestin were determined in GBM1 neurospheres after 7 days of the indicated treatments without growth factors. The RNA levels of 18S were used as an internal normalization control.\nThe immunocytochemistry of neurospheres and differentiated neurospheres was performed as described (Geshwind et al., 2001) using the following antibodies: anti-nestin (Chemicon), anti-GFAP (Dako), anti-TuJ1 (Chemicon), anti-04 (Chemicon), anti-Sox2 (Chemicon), anti-α-tubulin (Sigma). The nuclei were counterstained with 4′,6-diamino-2-phenylindole (DAPI).\nas §1\nThe neurospheres derived from GBMs grown in the absence of growth factors and seeded in poly-L-lysine-coated plates tend to differentiate losing the expression of the neuroprogenitor markers Musashi-1, Sox2 and Nestin, and being adhered to the culture plate. It was decided to evaluate the effect of TGFβ and LIF on this differentiation process. The neurospheres were cultured in the presence of TGFβ or LIF without EGF or FGF for 7 days and subsequently processed for immunohistochemical staining and qRT-PCR assays for determining the levels of the neuroprogenitor markers Musashi-1, Sox2 and Nestin."}},
  "data": [
    {"compound": "TGFβ: TGFβ1 (R&D Systems), used at 100 pM according to the figure legends", "values": [
      {"measurement": "LIF transcript in neurospheres derived from patients", "setting": "[1]", "result": "capable of inducing the LIF transcript"},
      {"measurement": "LIF transcript in neurospheres derived from patients", "setting": "[1]; listed as TGFβ1", "result": "capable of inducing LIF"},
      {"measurement": "adhesion to the culture plate / morphology versus control cells", "setting": "[2]", "result": "adhered less to the culture plate"}
    ]},
    {"compound": "NC(=O)c1ccc(-c2nc(-c3ccc4c(c3)OCO4)c(-c3ccccn3)[nH]2)cc1", "note": "[TβRI inhibitor, SB431542, reference compound]", "values": [
      {"measurement": "effect on the induction of LIF by TGFβ", "setting": "[1]; GBM neurospheres, 100 pM TGFβ1 with 2 μM TβRI inhibitor", "result": "blocked"}
    ]},
    {"compound": "LIF: recombinant leukemia inhibitory factor, an IL-6 type cytokine (Chemicon)", "values": [
      {"measurement": "expression of Musashi-1, Sox2 and Nestin (immunocytochemistry, qRT-PCR)", "setting": "[2]; GBM1 neurospheres, 100 pM TGFβ1 or 20 ng/ml LIF", "result": "maintained the expression"},
      {"measurement": "adhesion to the culture plate / morphology versus control cells", "setting": "[2]", "result": "adhered less to the culture plate"}
    ]}
  ]
}
